From patent publication US20250353873A1, “COMPOUNDS AND METHODS FOR MODULATING APOE EXPRESSION” (Ionis Pharmaceuticals, Inc., priority 2024, published 2025)
Strand notation (5' to 3'): a small letter for the sugar, then the base; units joined by * are phosphorothioate-linked, units joined directly phosphodiester-linked; [ ] holds rarer units or linkages, { } end groups; capitals alone tell only the bases. [ms] = mesyl phosphoramidate linkage; e = 2'-O-(2-methoxyethyl) (MOE); k = constrained ethyl (cEt); [5mC] = 5-methylcytosine; d = 2'-deoxy (DNA)

Assays:
human APOE RNA [1] = assay: Dose-dependent inhibition of human APOE RNA in HepG2 cells, electroporation, 24 hours (Example 6); type: cell-based
Protocol: Modified oligonucleotides selected from the examples above were tested at various doses in HepG2.
HepG2 cells plated at a density of 50,000 cells per well were treated by electroporation with various concentrations of modified oligonucleotide as specified in the tables below. […] APOE RNA levels were measured using the human primer probe set RTS3073 (described herein above). APOE RNA levels were normalized to human GAPDH. Human GAPDH was amplified using human primer probe set RTS 104 (described herein above). Results are presented as percent APOE RNA, relative to the amount of APOE RNA in untreated control cells (% UTC). The half maximal inhibitory concentration (IC50) of each modified oligonucleotide was calculated in GraphPad Prism 10 (GraphPad Software, San Diego, CA) and is also presented in the tables below.

human APOE RNA [2] = assay: Activity in APOE C57BL/6NTac-Apoeem7250 knock-in mice, single ICV bolus, 4 weeks (Example 10); type: in vivo; details: single ICV bolus 300 μg
Protocol: Modified oligonucleotides described above were tested in the APOE C57BL/6NTac-Apoeem7250 knock-in mouse model described above.
APOE C57BL/6NTac-Apoeem7250 knock-in mice were divided into groups of 2-4 mice each. Each mouse received a single ICV bolus of 300 μg of modified oligonucleotide. A group of 3-4 mice received a single ICV bolus with PBS as a negative control.
Four weeks post treatment, mice were sacrificed and RNA was extracted from cortical brain tissue and spinal cord for quantitative real-time RT-PCR analysis of RNA expression of APOE using human primer probe set RTS3073 (described herein above). APOE RNA levels were normalized to mouse Ppia. Mouse Ppia was amplified using primer probe set m_cyclo24 (described herein above). Results are presented as percent human APOE RNA relative to the amount of human APOE RNA in PBS treated animals, (% control). Each experiment is identified in separate tables below.

human APOE RNA [3] = assay: Activity in APOE C57BL/6NTac-Apoeem7250 knock-in mice, single ICV bolus, 16 weeks (Example 12); type: in vivo; details: single ICV bolus 300 μg, 16 weeks post treatment, normalized to mouse Ppia
Method in brief: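 Knock-in mice (3-4 per group) received one ICV bolus of 300 μg oligonucleotide, PBS as control. After 16 weeks, human APOE RNA in cortex and spinal cord measured by RT-qPCR, normalized to mouse Ppia, and reported as % of PBS control.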

human APOE RNA [4] = assay: Dose-dependent inhibition of human APOE RNA in HepG2 cells, electroporation, 50,000 cells per well, RT-PCR normalized to GAPDH (Example 4, Tables 8-10); type: cell-based; details: HepG2, electroporation, 24-hour treatment
Protocol: Modified oligonucleotides selected from the examples above were tested at various doses in HepG2 cells. The modified oligonucleotides were tested in a series of experiments that had the same culture conditions. Each experiment is identified in separate tables below.
HepG2 cells plated at a density of 50,000 cells per well were treated by electroporation with various concentrations of modified oligonucleotide as specified in the tables below. […] APOE RNA levels were measured using the human primer probe set RTS3073 (forward sequence […], designated herein as SEQ ID NO: 7; reverse sequence CCATCAGCGCCCTCAGTT, designated herein as SEQ ID NO: 8; probe sequence […], designated herein as SEQ ID NO:9). APOE RNA levels were normalized to human GAPDH. […] Results are presented as percent APOE RNA, relative to the amount of APOE RNA in untreated control cells (UTC).

[5] = Cortex, C57BL/6NTac-Apoeem7250 knock-in mice, 4 weeks (Table 22)
[6] = Spinal Cord, C57BL/6NTac-Apoeem7250 knock-in mice, 4 weeks (Table 22)
[7] = cortex, 4 weeks post treatment, normalized to mouse Ppia
[8] = spinal cord, 4 weeks post treatment, normalized to mouse Ppia

Substance | IC50 (human APOE RNA [1]) [µM] | APOE RNA (% UTC) (human APOE RNA [1]; 5 nM) | APOE RNA (% UTC) (human APOE RNA [1]; 13 nM) | APOE RNA (% UTC) (human APOE RNA [1]; 33 nM) | APOE RNA (% UTC) (human APOE RNA [1]; 82 nM) | APOE RNA (% UTC) (human APOE RNA [1]; 205 nM) | APOE RNA (% UTC) (human APOE RNA [1]; 512 nM) | APOE RNA (% UTC) (human APOE RNA [4]; 5 nM) | APOE RNA (% UTC) (human APOE RNA [4]; 13 nM) | APOE RNA (% UTC) (human APOE RNA [4]; 33 nM) | APOE RNA (% UTC) (human APOE RNA [4]; 82 nM) | APOE RNA (% UTC) (human APOE RNA [4]; 205 nM) | APOE RNA (% UTC) (human APOE RNA [4]; 512 nM) | APOE RNA (% UTC) (human APOE RNA [4]; 1,280 nM) | APOE RNA (% UTC) (human APOE RNA [4]; 3,200 nM) | APOE RNA (% UTC) (human APOE RNA [4]; 8,000 nM) | APOE RNA (% UTC) (human APOE RNA [4]; 20,000 nM) | IC50 (human APOE RNA [4]) [µM] | APOE RNA (% control) Cortex (human APOE RNA [2]; [7]) [% control] | APOE RNA (% control) Spinal Cord (human APOE RNA [2]; [8]) [% control] | other results
1736528 (e[5mC]*eT*eT*eG*eG*eTdG[ms]dA[ms]dA[ms]dT*d[5mC]*dT*dT*dT*dA[ms]dT*kT*eA*eA*eA; antisense) [Compound 1736528] | 1.63 | 100 | 112 | 107 | 116 | 84 | 62 |  |  |  |  |  |  |  |  |  |  |  |  |  | APOE RNA (% UTC) (human APOE RNA [1]; 1,280 nM): 50 % UTC; APOE RNA (% UTC) (human APOE RNA [1]; 3,200 nM): 39 % UTC; APOE RNA (% UTC) (human APOE RNA [1]; 8,000 nM): 23 % UTC; APOE RNA (% UTC) (human APOE RNA [1]; 20,000 nM): 16 % UTC; APOE RNA (% control) Cortex (human APOE RNA [2]; [5]): 57 % control; APOE RNA (% control) Spinal Cord (human APOE RNA [2]; [6]): 56 % control
1736492 (e[5mC]*eTeT*eG*eG*eT*dG[ms]dA[ms]dA[ms]dT*d[5mC]*dT*dT*dT*dA[ms]dT*kT*eA*eA*eA; antisense) [Compound 1736492] | 0.94 | 95 | 87 | 76 | 82 | 71 | 52 |  |  |  |  |  |  |  |  |  |  |  |  |  | APOE RNA (% UTC) (human APOE RNA [1]; 1,280 nM): 52 % UTC; APOE RNA (% UTC) (human APOE RNA [1]; 3,200 nM): 41 % UTC; APOE RNA (% UTC) (human APOE RNA [1]; 8,000 nM): 15 % UTC; APOE RNA (% UTC) (human APOE RNA [1]; 20,000 nM): 20 % UTC; APOE RNA (% control) Cortex (human APOE RNA [2]; [5]): 45 % control; APOE RNA (% control) Spinal Cord (human APOE RNA [2]; [6]): 46 % control; APOE RNA (% control) Cortex (human APOE RNA [3]; cortex): 53 % control; APOE RNA (% control) Spinal Cord (human APOE RNA [3]; spinal cord): 52 % control
1746794 (k[5mC]*kT*kT*dG[ms]dG[ms]dT[ms]dG[ms]dA[ms]dA[ms]dT*d[5mC]*dT*dT*dT*dA[ms]dT*kT*dA[ms]kA*kA; antisense) [Compound 1746794] |  |  |  |  |  |  |  | 119 | 107 | 94 | 91 | 67 | 72 | 37 | 16 | 9 | 3 | 0.8 | 76 | 41 | 
1746796 (k[5mC]*kT*dT[ms]dG[ms]kG*dT[ms]dG[ms]dA[ms]dA[ms]dT*d[5mC]*dT*dT*dT*dA[ms]dT*kT*dA[ms]kA*kA; antisense) [Compound 1746796] |  |  |  |  |  |  |  | 110 | 126 | 128 | 137 | 119 | 89 | 71 | 40 | 28 | 20 | 3.01 | 81 | 68 | 
1746797 (k[5mC]*kT*dT[ms]dG[ms]dG[ms]kT*dG[ms]dA[ms]dA[ms]dT*d[5mC]*dT*dT*dT*dA[ms]dT*kT*dA[ms]kA*kA; antisense) [Compound 1746797] |  |  |  |  |  |  |  | 139 | 128 | 150 | 143 | 129 | 113 | 71 | 37 | 42 | 18 | 3.77 | 72 | 68 | 
